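A five-concentration, 48-hour dose response in 96-well plates underlies each endpoint, interpolated linearly between surrounding concentrations. At the GI50, growth is halved.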 The source made the active and inactive calls. Rule as the data show it: active = GI50 up to about 1.1 µM and inactive = higher.
Key:
Assay in all cases: NCI tumour cell line growth inhibition, 48 h
786-0 = tested on: 786-0
ACHN = tested on: ACHN
HCC 2998 = tested on: HCC 2998
HL-60 = tested on: HL-60
HOP-92 = tested on: HOP-92
KM12 = tested on: KM12
LOX IMVI = tested on: LOX IMVI
NCI-H522 = tested on: NCI-H522
OVCAR-3 = tested on: OVCAR-3
RPMI-8226 = tested on: RPMI-8226
SF-268 = tested on: SF-268
SF-295 = tested on: SF-295
SNB-19 = tested on: SNB-19
SNB-75 = tested on: SNB-75
U-251 = tested on: U-251
HCT-15 = tested on: HCT-15
MOLT-4 = tested on: MOLT-4
SK-MEL-2 = tested on: SK-MEL-2
SR = tested on: SR

SMILES	GI50 (786-0)	GI50 (ACHN)	GI50 (HCC 2998)	GI50 (HL-60)	GI50 (HOP-92)	GI50 (KM12)	GI50 (LOX IMVI)	GI50 (NCI-H522)	GI50 (OVCAR-3)	GI50 (RPMI-8226)	GI50 (SF-268)	GI50 (SF-295)	GI50 (SNB-19)	GI50 (SNB-75)	GI50 (U-251)	GI50 (HCT-15) [µM]	GI50 (MOLT-4)	GI50 (SK-MEL-2)	GI50 (SR)
CN1C2(c3ccccc3)c3c(-c4ccccc4)sc(-c4ccccc4)c3C1(c1ccccc1)C1C(=O)N(c3ccccc3)C(=O)C12 (centres undefined)	> 100 µM (inactive)	> 100 µM (inactive)	> 100 µM (inactive)	> 100 µM (inactive)	> 100 µM (inactive)	> 100 µM (inactive)	> 100 µM (inactive)	> 100 µM (inactive)	> 100 µM (inactive)	> 100 µM (inactive)	> 100 µM (inactive)	> 100 µM (inactive)	> 100 µM (inactive)	> 100 µM (inactive)	> 100 µM (inactive)				
CC(=O)NNc1nc(C)c(C(=O)/C=C/c2ccc(Cl)c(Cl)c2)s1	> 100 µM (inactive)	> 100 µM (inactive)	> 100 µM (inactive)	> 100 µM (inactive)	> 100 µM (inactive)	> 100 µM (inactive)	> 100 µM (inactive)	95.9 µM (inactive)	> 100 µM (inactive)	> 100 µM (inactive)	> 100 µM (inactive)	> 100 µM (inactive)	> 100 µM (inactive)	> 100 µM (inactive)	> 100 µM (inactive)	> 100	> 100 µM (inactive)	> 100 µM (inactive)	
CC(=O)O[C@H]1C(=O)[C@@]2(C)C(C(OC(=O)c3ccccc3)[C@]3(O)CC(OC(=O)C(O)C(NC(=O)c4ccc(C)cc4)c4ccccc4)C(C)=C1C3(C)C)[C@]1(OC(C)=O)CO[C@@H]1C[C@@H]2O (some centres undefined)	0.0074 µM (active)	0.112 µM (active)		< 0.0025 µM (active)		< 0.0025 µM (active)	0.00352 µM (active)	< 0.0025 µM (active)	< 0.0025 µM (active)	< 0.0025 µM (active)	0.00573 µM (active)	0.0228 µM (active)	0.00771 µM (active)	0.0045 µM (active)	0.00315 µM (active)	0.173	< 0.0025 µM (active)	< 0.0025 µM (active)	
CN(C)/C=N\c1cc[nH]c(=O)n1	> 100 µM (inactive)	> 100 µM (inactive)		> 100 µM (inactive)	> 100 µM (inactive)	> 100 µM (inactive)	> 100 µM (inactive)	> 100 µM (inactive)	> 100 µM (inactive)	> 100 µM (inactive)	> 100 µM (inactive)	> 100 µM (inactive)		> 100 µM (inactive)	> 100 µM (inactive)	> 100		> 100 µM (inactive)	
O=c1ccccc2cccc(O)c12	> 100 µM (inactive)	> 100 µM (inactive)	> 100 µM (inactive)	> 100 µM (inactive)	84.1 µM (inactive)		> 100 µM (inactive)		> 100 µM (inactive)	> 100 µM (inactive)		> 100 µM (inactive)	> 100 µM (inactive)	> 100 µM (inactive)	> 100 µM (inactive)	> 100	> 100 µM (inactive)		
Cc1cc2c(c(C(N)=O)c1C)-c1cccc(Cl)c1C2=O	> 100 µM (inactive)	> 100 µM (inactive)	> 100 µM (inactive)	> 100 µM (inactive)	> 100 µM (inactive)	> 100 µM (inactive)	> 100 µM (inactive)	27 µM (inactive)	> 100 µM (inactive)	> 100 µM (inactive)	> 100 µM (inactive)	> 100 µM (inactive)	64.1 µM (inactive)	6.7 µM (inactive)	> 100 µM (inactive)	> 100	57.9 µM (inactive)	> 100 µM (inactive)	
O=c1ccn([C@H]2CSC[C@@H](CO)C2)c(=O)[nH]1	> 100 µM (inactive)	> 100 µM (inactive)	> 100 µM (inactive)	> 100 µM (inactive)	> 100 µM (inactive)	> 100 µM (inactive)	> 100 µM (inactive)	> 100 µM (inactive)	> 100 µM (inactive)	> 100 µM (inactive)	> 100 µM (inactive)	> 10 µM (inactive)	> 100 µM (inactive)	56.4 µM (inactive)	> 100 µM (inactive)	> 100	> 100 µM (inactive)	> 100 µM (inactive)	
COc1ccc(OCC(=O)O)c2c1CCC(C)C2=O (centres undefined)	> 100 µM (inactive)	> 100 µM (inactive)	> 100 µM (inactive)	> 100 µM (inactive)		> 100 µM (inactive)	> 100 µM (inactive)	> 100 µM (inactive)	> 100 µM (inactive)	> 100 µM (inactive)	> 100 µM (inactive)	> 100 µM (inactive)	> 100 µM (inactive)		> 100 µM (inactive)	> 100	> 100 µM (inactive)	> 100 µM (inactive)	
CS(=O)(=O)c1ccc(-c2cc(-c3ccc(S(C)(=O)=O)cc3)[n+](-c3cc(-c4ccccc4)c([O-])c(-c4ccccc4)c3)c(-c3ccc(S(C)(=O)=O)cc3)c2)cc1	> 100 µM (inactive)	> 100 µM (inactive)	> 100 µM (inactive)			> 100 µM (inactive)	> 100 µM (inactive)	> 100 µM (inactive)	> 100 µM (inactive)	> 100 µM (inactive)	> 100 µM (inactive)	> 100 µM (inactive)	> 100 µM (inactive)		> 100 µM (inactive)	> 100	> 100 µM (inactive)	> 100 µM (inactive)	> 100 µM (inactive)
Cc1ccc(/N=N/C2S/C(=C(\C#N)c3nc4ccccc4[nH]3)N(c3ccccc3)C2=O)cc1 (centres undefined)	27.3 µM (inactive)	34.1 µM (inactive)		> 100 µM (inactive)	37.3 µM (inactive)		19.9 µM (inactive)	> 100 µM (inactive)	> 100 µM (inactive)		> 100 µM (inactive)	42.6 µM (inactive)	99.1 µM (inactive)	29.2 µM (inactive)	57.9 µM (inactive)	> 100		> 100 µM (inactive)	
CC12ON=C(c3ccccc3)N1C=CN1C(c3ccccc3)=NOC12 (centres undefined)	> 100 µM (inactive)	> 100 µM (inactive)	> 100 µM (inactive)			> 100 µM (inactive)	> 100 µM (inactive)	> 100 µM (inactive)	> 100 µM (inactive)		> 100 µM (inactive)	> 100 µM (inactive)	> 100 µM (inactive)	> 100 µM (inactive)		> 100			
COc1cc(C2C(Cl)C(=O)N2NC(=O)c2ccc(N)cc2)ccc1O (centres undefined)	19.1 µM (inactive)	> 100 µM (inactive)	20.2 µM (inactive)	27.9 µM (inactive)	25.5 µM (inactive)	25.1 µM (inactive)	14.8 µM (inactive)	19.8 µM (inactive)	16.6 µM (inactive)	78 µM (inactive)		67.8 µM (inactive)	25.3 µM (inactive)	75.5 µM (inactive)	18 µM (inactive)	39.9	23.5 µM (inactive)	59.8 µM (inactive)	

— ChEMBL document CHEMBL1201862, “PubChem BioAssay data set” (2004)
